Test results from the supplement of paper PMC10307832.

Legend:
Assay in all cases: relative viability (nuclei count vs DMSO), 5 days (fraction); higher = more cells survive
HCC-15 = system: HCC-15
In short: (§1)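 Each reported value is a median over duplicate plates. It expresses relative viability: treated-well nuclei count divided by vehicle-well nuclei count. Lung cancer cell lines in 1536-well plates were dosed by pin tool a day after seeding, alone with one drug or with a fixed anchor-drug dose plus five library-drug doses (not always all listed) in √10 steps, and nuclei were counted after 5 days.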

NCI-H358 = system: NCI-H358
In short: as §1

NCI-H23 = system: NCI-H23
In short: as §1

NCI-H1975 = system: NCI-H1975
In short: as §1

NCI-H838 = system: NCI-H838
In short: as §1

BEN = system: BEN
In short: as §1

NCI-H1437 = system: NCI-H1437
In short: as §1

201T = system: 201T
In short: as §1

NCI-H2342 = system: NCI-H2342
In short: as §1

NCI-H596 = system: NCI-H596
In short: as §1

SK-MES-1 = system: SK-MES-1
In short: as §1

HARA = system: HARA
In short: as §1

HCC-44 = system: HCC-44
In short: as §1

NCI-H1650 = system: NCI-H1650
In short: as §1

EKVX = system: EKVX
In short: as §1

COR-L23 = system: COR-L23
In short: as §1

NCI-H1792 = system: NCI-H1792
In short: as §1

NCI-H650 = system: NCI-H650
In short: as §1

NCI-H441 = system: NCI-H441
In short: as §1

HCC-827 = system: HCC-827
In short: as §1

A-427 = system: A-427
In short: as §1

SW 900 = system: SW 900
In short: as §1

Structure (SMILES): Cc1sc2c(c1C)C(c1ccc(Cl)cc1)=N[C@@H](CC(=O)OC(C)(C)C)c1nnc(C)n1-2 [JQ1] + COc1cccc2cc(-c3nc([C@H]4CC[C@H](C(=O)O)CC4)n4ncnc(N)c34)[nH]c12 [OSI-027] (partner 0.5 µM)
- relative viability (HCC-15; first compound 0.04 µM): 0.693
- relative viability (HCC-15; first compound 0.4 µM): 0.593
- relative viability (HCC-15; first compound 1.265 µM): 0.347
- relative viability (HCC-15; first compound 4 µM): 0.315
- relative viability (NCI-H358; first compound 0.04 µM): 0.705
- relative viability (NCI-H358; first compound 0.1265 µM): 0.796
- relative viability (NCI-H358; first compound 0.4 µM): 0.748
- relative viability (NCI-H358; first compound 1.265 µM): 0.47
- relative viability (NCI-H358; first compound 4 µM): 0.461
- relative viability (NCI-H23; first compound 0.04 µM): 0.586
- relative viability (NCI-H23; first compound 0.1265 µM): 0.583
- relative viability (NCI-H23; first compound 0.4 µM): 0.394
- relative viability (NCI-H23; first compound 1.265 µM): 0.198
- relative viability (NCI-H23; first compound 4 µM): 0.204
- relative viability (NCI-H1975; first compound 0.04 µM): 0.708
- relative viability (NCI-H1975; first compound 0.1265 µM): 0.527
- relative viability (NCI-H1975; first compound 0.4 µM): 0.62
- relative viability (NCI-H1975; first compound 1.265 µM): 0.437
- relative viability (NCI-H1975; first compound 4 µM): 0.393
- relative viability (NCI-H838; first compound 0.04 µM): 0.379
- relative viability (NCI-H838; first compound 0.1265 µM): 0.369
- relative viability (NCI-H838; first compound 0.4 µM): 0.433
- relative viability (NCI-H838; first compound 1.265 µM): 0.251
- relative viability (NCI-H838; first compound 4 µM): 0.21
- relative viability (BEN; first compound 0.04 µM): 0.282
- relative viability (BEN; first compound 0.1265 µM): 0.286
- relative viability (BEN; first compound 0.4 µM): 0.335
- relative viability (BEN; first compound 1.265 µM): 0.252
- relative viability (BEN; first compound 4 µM): 0.2
- relative viability (NCI-H1437; first compound 0.04 µM): 0.871
- relative viability (NCI-H1437; first compound 0.1265 µM): 0.809
- relative viability (NCI-H1437; first compound 0.4 µM): 0.599
- relative viability (NCI-H1437; first compound 1.265 µM): 0.36
- relative viability (NCI-H1437; first compound 4 µM): 0.319
- relative viability (201T; first compound 0.04 µM): 0.761
- relative viability (201T; first compound 0.1265 µM): 0.596
- relative viability (201T; first compound 0.4 µM): 0.688
- relative viability (201T; first compound 1.265 µM): 0.238
- relative viability (201T; first compound 4 µM): 0.201
- relative viability (NCI-H2342; first compound 0.04 µM): 0.695
- relative viability (NCI-H2342; first compound 0.1265 µM): 0.605
- relative viability (NCI-H2342; first compound 0.4 µM): 0.702
- relative viability (NCI-H2342; first compound 1.265 µM): 0.681
- relative viability (NCI-H2342; first compound 4 µM): 0.52
- relative viability (NCI-H596; first compound 0.04 µM): 0.809
- relative viability (NCI-H596; first compound 0.1265 µM): 0.892
- relative viability (NCI-H596; first compound 0.4 µM): 0.539
- relative viability (NCI-H596; first compound 1.265 µM): 0.334
- relative viability (NCI-H596; first compound 4 µM): 0.283
- relative viability (SK-MES-1; first compound 0.04 µM): 0.614
- relative viability (SK-MES-1; first compound 0.1265 µM): 0.497
- relative viability (SK-MES-1; first compound 0.4 µM): 0.379
- relative viability (SK-MES-1; first compound 1.265 µM): 0.157
- relative viability (SK-MES-1; first compound 4 µM): 0.158
- relative viability (HARA; first compound 0.04 µM): 0.418
- relative viability (HARA; first compound 0.1265 µM): 0.341
- relative viability (HARA; first compound 0.4 µM): 0.282
- relative viability (HARA; first compound 1.265 µM): 0.11
- relative viability (HARA; first compound 4 µM): 0.141
- relative viability (HCC-44; first compound 0.04 µM): 0.477
- relative viability (HCC-44; first compound 0.1265 µM): 0.293
- relative viability (HCC-44; first compound 0.4 µM): 0.484
- relative viability (HCC-44; first compound 1.265 µM): 0.288
- relative viability (HCC-44; first compound 4 µM): 0.214
- relative viability (NCI-H1650; first compound 0.04 µM): 0.51
- relative viability (NCI-H1650; first compound 0.1265 µM): 0.447
- relative viability (NCI-H1650; first compound 0.4 µM): 0.328
- relative viability (NCI-H1650; first compound 1.265 µM): 0.153
- relative viability (NCI-H1650; first compound 4 µM): 0.206
- relative viability (EKVX; first compound 0.04 µM): 0.698
- relative viability (EKVX; first compound 0.1265 µM): 0.587
- relative viability (EKVX; first compound 0.4 µM): 0.722
- relative viability (EKVX; first compound 1.265 µM): 0.571
- relative viability (EKVX; first compound 4 µM): 0.488
- relative viability (COR-L23; first compound 0.04 µM): 0.861
- relative viability (COR-L23; first compound 0.1265 µM): 0.662
- relative viability (COR-L23; first compound 0.4 µM): 0.699
- relative viability (COR-L23; first compound 1.265 µM): 0.293
- relative viability (COR-L23; first compound 4 µM): 0.46
- relative viability (NCI-H1792; first compound 0.04 µM): 0.666
- relative viability (NCI-H1792; first compound 0.4 µM): 0.82
- relative viability (NCI-H1792; first compound 1.265 µM): 0.497
- relative viability (NCI-H1792; first compound 4 µM): 0.57
- relative viability (NCI-H650; first compound 0.04 µM): 0.584
- relative viability (NCI-H650; first compound 0.1265 µM): 0.41
- relative viability (NCI-H650; first compound 0.4 µM): 0.415
- relative viability (NCI-H650; first compound 1.265 µM): 0.25
- relative viability (NCI-H650; first compound 4 µM): 0.192
- relative viability (NCI-H441; first compound 0.04 µM): 0.718
- relative viability (NCI-H441; first compound 0.1265 µM): 0.583
- relative viability (NCI-H441; first compound 0.4 µM): 0.705
- relative viability (NCI-H441; first compound 1.265 µM): 0.392
- relative viability (NCI-H441; first compound 4 µM): 0.334
- relative viability (HCC-827; first compound 0.04 µM): 0.704
- relative viability (HCC-827; first compound 0.4 µM): 0.532
- relative viability (HCC-827; first compound 1.265 µM): 0.866
- relative viability (HCC-827; first compound 4 µM): 0.738
- relative viability (A-427; first compound 0.04 µM): 0.468
- relative viability (A-427; first compound 0.1265 µM): 0.45
- relative viability (A-427; first compound 0.4 µM): 0.458
- relative viability (A-427; first compound 1.265 µM): 0.3
- relative viability (A-427; first compound 4 µM): 0.293
- relative viability (SW 900; first compound 0.04 µM): 0.572
- relative viability (SW 900; first compound 0.1265 µM): 0.627
- relative viability (SW 900; first compound 0.4 µM): 0.352
- relative viability (SW 900; first compound 1.265 µM): 0.165
- relative viability (SW 900; first compound 4 µM): 0.166
